What all share (assay type): cell-based, human
In experiment [1] the test system is circulating CD8+ T cells. Briefly: Ex vivo combinatorial HLA-A2 multimer (MMr) staining of PBMCs. Particulars: for frequency of circulating MMr+ CD8+ T cells (in words): HLA-A2+ recent-onset T1D and healthy subjects; for median frequency in peripheral blood: T1D patients, fraction of CD8+ T cells. The method, then: All peptides were synthesized at >90% purity (Synpeptides). HLA-A2 MMrs were produced as described (Leisner et al., 2008) and staining performed in the presence of 50 nM dasatinib (Lissina et al., 2009), as described (Culina et al., 2018). Briefly, cryopreserved PBMCs were magnetically depleted of CD8^− cells (StemCell Technologies), stained with the combinatorial MMr panels (Hadrup et al., 2009) and acquired using a FACSAria III cytometer.

In experiment [2] the test system is circulating CD8+ T cells. Kind of experiment: Ex vivo HLA-A3 multimer (MMr) staining of PBMCs. Particulars: for positive hits for the HLA-A3 restriction: HLA-A3+ T1D and healthy donors. The method, then: HLA-A3 MMrs were produced and used as described (Gonzalez-Duque, Cell Metab 2018). Each peptide-HLA-A3 complex was used at a final concentration of 8-27 nM and conjugated with fluorochrome-labeled streptavidin at a 1:4 ratio. The concentration of each fluorescent MMr was corrected for the variable staining index of each streptavidin, in order to obtain a distinct double-MMr+ population for each fluorochrome pair. Compensations were set using fluorescence-minus-one samples (i.e. omitting one streptavidin at a time).
PBMCs were thawed at 37° C. and immediately diluted in pre-warmed AIM-V medium. Following centrifugation and one additional wash in AIM-V, PBMCs were counted and rested in the presence of 50 nM dasatinib for 30 min at 37° C. to prevent internalization of T-cell receptors before magnetic depletion of CD8^− cells (StemCell Technologies). Staining was performed for 20 min at 20° C. in […] PBS-dasatinib for 10^7 cells with combinatorial double-coded MMr panels, followed, without washing, by CD3-APC-H7 (RRID AB_1645475), CD8-PE-Cy7 (AB_396852), CD45RA-FITC (AB_395879), CCR7-BV421 (AB_2728119) monoclonal antibodies and Live/Dead Aqua (ThermoFisher) staining at 4° C. for 20 min. After one wash, cells were acquired using a FACSAria III cytometer. […] Flow cytometry data were analyzed with FlowJo v10 and Graphpad Prism 7.0 software. Cells were sequentially gated on small lymphocytes, singlets, live cells (Live/Dead Aqua^−), CD3^+CD8^+ T cells and total PE^+, PE-CF594^+, APC^+, BV650^+, BV711^+ and BV786^+MMr^+ T cells. Using Boolean operators, these latter gates allowed to selectively visualize each double-MMr^+ population by including only those events positive for the corresponding fluorochrome pair. For example, SCG3166-174 MMr^+ cells (PE^+PE-CF594^+) were visualized by gating on events that were PE^+PE-CF594^+APC^−BV650^−BV711^−BV786^−. Events negative for all MMr fluorochromes (PE^−PE-CF594^−APC^−BV650^−BV711^−BV786^−) were represented in the same PE/PE-CF-594 dot plot to set the double-MMr^+ gate. CD45RA and CCR7 staining was subsequently visualized by gating on these MMr^+ cells.

Experiment [3] has as its system pancreas-infiltrating cells of HLA-A2+ T1D patients. Briefly: In-situ HLA-A2 MMr staining on pancreas sections. Particulars: 2 HLA-A2+ T1D cases, nPOD tissue sections. The method, then: In-situ staining was performed as described (Culina et al., 2018). Unfixed, frozen sections were dried for 2 h, loaded with 1 μg of MMrs overnight at 4° C., washed gently with phosphate-buffered saline and fixed in 2% paraformaldehyde for 10 min. After a further wash, endogenous peroxidase activity was blocked with 0.3% H2O2. Sections were then incubated serially with rabbit anti-phycoerythrin, horseradish peroxidase-conjugated swine anti-rabbit and 3,3′-diaminobenzidine tetrahydrochloride substrate (ThermoFisher). After a final wash, sections were counterstained with hematoxylin, dehydrated via sequential passages in 95-100% ethanol and xylene, mounted and analyzed using a Nikon Eclipse Ni microscope with NIS-Elements Analysis D software v4.40.

Where [4] appears, read: HLA-A2+ healthy donors, screening.

Where no end group is shown, it is not given here.

Consider “KIF1A1347-1355: HLA-A2-restricted HLA-eluted β-cell peptide from kinesin family member 1A (VLDTSVAYV)”, for which the “cognate naïve CD8+ T-cell repertoire (frequency 1-50/10^6 CD8+ T cells, clustered MMr staining, in ≥50% of individuals)” value in the experiment on circulating CD8+ T cells [1] (setting [4]) is recorded as “validated”.

As for “UCN31-9: HLA-A2-restricted HLA-eluted β-cell peptide from urocortin-3 leader sequence (MLMPVHFLL)”, in the experiment on circulating CD8+ T cells [1] (setting [4]), the “cognate naïve CD8+ T-cell repertoire (frequency 1-50/10^6 CD8+ T cells, clustered MMr staining, in ≥50% of individuals)” value is “validated”. The “frequency of circulating MMr+ CD8+ T cells (in words)” value with circulating CD8+ T cells [1] was “particularly high and clustered”.

On to YLQGQRLDNV, for which the “cognate naïve CD8+ T-cell repertoire (frequency 1-50/10^6 CD8+ T cells, clustered MMr staining, in ≥50% of individuals)” value in the experiment on circulating CD8+ T cells [1] (setting [4]) is reported as “validated”.

As for “PTPRN576-580/708-711: spliced peptide derived from the fusion of two non-contiguous IA-2 sequences, HLA-A3 (SVLLTRLAK)”, the “positive hits for the HLA-A3 restriction” value in the experiment on circulating CD8+ T cells [2] is given as “identified”.

On to “CHGA344-352: HLA-A2-restricted HLA-eluted β-cell peptide from chromogranin A, maps to the WE-14 neuropeptide (KMDQLAKEL)”, for which, in the experiment on circulating CD8+ T cells [1] (setting [4]), the “cognate naïve CD8+ T-cell repertoire (frequency 1-50/10^6 CD8+ T cells, clustered MMr staining, in ≥50% of individuals)” value is on record as “validated”.

As to “ZnT8186-184: positive control islet peptide (VAANIVLTV; UniProt Q8IWU4 186-194, looked up, fragment) [reference compound]”, in experiment [3], the “in-situ MMr staining of pancreas sections” value (shortened to “in-situ MMr staining”) was “observed”.

“ISL1276-284: HLA-A2-restricted HLA-eluted peptide from insulin gene enhancer protein ISL1 (GLQANPVEV)”: the “cognate naïve CD8+ T-cell repertoire (frequency 1-50/10^6 CD8+ T cells, clustered MMr staining, in ≥50% of individuals)” value with circulating CD8+ T cells [1] (setting [4]) is given as “validated”. The “median frequency in peripheral blood” value with circulating CD8+ T cells [1] is reported as 7.2×10^−6. Also, the “in-situ MMr staining” value in experiment [3] is “MMr^+ cells could be detected”.

For the substance “KCNK16129-137: HLA-A2-restricted HLA-eluted β-cell peptide from KCNK16 (ALLGIPLNV)”, the “cognate naïve CD8+ T-cell repertoire (frequency 1-50/10^6 CD8+ T cells, clustered MMr staining, in ≥50% of individuals)” value in the experiment on circulating CD8+ T cells [1] (setting [4]) is “validated”.

Consider “SCG3166-174: HLA-A3-restricted islet peptide from secretogranin III (AVFDKIVSK)”, for which, in the experiment with circulating CD8+ T cells [2], the “positive hits for the HLA-A3 restriction” value was “positive hits”.

As to “IAPP15-17/IAPP5-10: peptide splice product from fusion of IAPP15-17 and IAPP5-10, HLA-A2-restricted (VALKLQVFL)”, the “recognition by circulating CD8+ T cells, donors” value in the experiment on circulating CD8+ T cells [1] (setting [4]) is 1 of 6. Further, the “median frequency in peripheral blood” value in the experiment with circulating CD8+ T cells [1] was 1.6×10^−6. Moreover, in experiment [3], the “in-situ MMr staining” value is reported as “MMr^+ cells could be detected”.

Take “PNMA250-58: HLA-A3-restricted islet peptide candidate, not validated (RLLGKIFRK)”: the “validation as CD8+ T-cell epitopes” value with circulating CD8+ T cells [2] (second validation round, PBMCs from T1D and healthy donors) is “single exception”.

As for RLKPSLVGK, the “positive hits for the HLA-A3 restriction” value with circulating CD8+ T cells [2] is on record as “positive hits”.

On to “UCN346-56: HLA-A3-restricted islet peptide from urocortin-3 (GQWEDASLLSK)”, for which the “positive hits for the HLA-A3 restriction” value with circulating CD8+ T cells [2] is “positive hits”.

For “KIF1A860-868: HLA-A3-restricted islet peptide from KIF1A (LLYPVPLVH)”, the “positive hits for the HLA-A3 restriction” value in the experiment with circulating CD8+ T cells [2] is recorded as “positive hits”.

In the case of FLSGAVNRL, the “cognate naïve CD8+ T-cell repertoire (frequency 1-50/10^6 CD8+ T cells, clustered MMr staining, in ≥50% of individuals)” value in the experiment with circulating CD8+ T cells [1] (setting [4]) is recorded as “validated”. For the same substance, the “frequency of circulating MMr+ CD8+ T cells (in words)” value in the experiment on circulating CD8+ T cells [1] is “particularly high and clustered”.

Consider “PCSK230-38: HLA-A2-restricted HLA-eluted β-cell peptide from proprotein convertase 2 (FTNHFLVEL)”, for which the “cognate naïve CD8+ T-cell repertoire (frequency 1-50/10^6 CD8+ T cells, clustered MMr staining, in ≥50% of individuals)” value in the experiment on circulating CD8+ T cells [1] (setting [4]) is on record as “validated”.

The values are drawn from patent US12492230B2, “Antigenic peptides deriving from secretogranin V and uses thereof for the diagnosis and treatment of type 1 diabetes” (INSERM (Institut National de la Santé et de la Recherche …, priority 2018, dated 2025).
